From patent publication US5194437A, “1,4-disubstituted piperazines” (Adir et Compagnie, priority 1990, dated 1993)
Where two headings read alike, the source gives them in different places.

Columns and labels:
5-HT1A receptors [1] = molecular target: T1, 5-HT1A receptors (Rattus norvegicus, UniProt P19327); test: Flat body posture (FBP), agonist response and antagonism of 8-OH-DPAT; assay type: in vivo, male Wistar rats; parameters: from tissue; host or cells: whole animal, male Wistar rat (in vivo); conditions: sc
T1 sequence (P19327 1-422): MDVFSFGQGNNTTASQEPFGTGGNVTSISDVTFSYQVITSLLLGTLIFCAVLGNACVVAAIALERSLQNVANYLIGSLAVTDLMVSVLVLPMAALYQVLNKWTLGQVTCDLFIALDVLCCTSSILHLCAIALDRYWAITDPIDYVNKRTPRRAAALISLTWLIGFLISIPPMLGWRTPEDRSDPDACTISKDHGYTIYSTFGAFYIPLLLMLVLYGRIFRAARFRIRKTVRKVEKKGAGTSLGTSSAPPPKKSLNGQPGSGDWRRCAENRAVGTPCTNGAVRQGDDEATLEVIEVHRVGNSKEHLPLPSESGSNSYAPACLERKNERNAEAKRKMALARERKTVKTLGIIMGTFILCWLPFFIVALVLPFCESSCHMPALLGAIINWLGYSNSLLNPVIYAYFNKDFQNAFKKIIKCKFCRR
Protocol: (§1) The tests were carried out on male Wistar rats weighing from 200 to 220 g which had free access to food and drinking water, in standard cages.
(§2) The animals are housed individually for the hypothermia, corticosterone secretion and flat body posture tests, and in groups of three for the tail flick test.
(§3) The laboratory temperature is kept at 21°±1° C., with 60 ±5% humidity. The rats are subjected to a light/dark cycle of 12 hours/12 hours (the light cycle commencing at 7.30 a.m.).
(§4) a/ General procedure for tests of agonist and antagonist activities on 5-HT1A receptors.
(§5) The test compounds were administered subcutaneously (s.c.) 60 minutes before the start of the test, that is to say 30 minutes before the vehicle (agonist responses) or 8-OH-DPAT (antagonist responses).
(§6) In all the tests, the solvent is used in parallel as the control. The animals were allowed to rest in their cages during the time between the injections and evaluation.
(§7) For the agonist studies, the solvent was administered at a dose of 1 ml/kg s.c. 30 minutes before the start of the test. For the antagonist studies, doses of 8-OH-DPAT inducing sub-maximal responses were chosen, i.e. doses of 0.63, 0.16, 0.16 and 0.16 mg/kg s.c. for the tail flick test, the flat body posture test, the corticosterone secretion test and the hypothermia test, respectively.
(§8) The same animals were employed for the evaluation of the effect of the test compounds on the FBP and for the determination of the plasma levels of CS. All the tests were carried out in the morning between 10.30 and 12.30, i.e. when the cicardian levels of CS are at their lowest.
25 minutes after the treatment (i.e. 5 minutes before decapitation), the animals are observed in their cages and the presence or absence of FBP is noted.
(§9) The presence of FBP is defined by a characteristic posture of the animal. The animal is then in a position of ventral decubitus with the hind limbs clearly in extension. 5 minutes after observation of FBP, the animals are decapitated and the trunk blood is collected in chilled tubes containing 50 μl of a 10% EDTA solution. After centrifugation at 4000 rpm, the plasma is removed and stored at -30° C. until assay.
(§10) In general, after variance analysis, the results are subjected to Dunnett's test. Results are regarded as significant if p<0.05.
For the dose-response for induction and inhibition of FBP, the effective doses 50 (ED50) (doses at which 50% of the animals show a response) were calculated by the method of Litchfield and Wilcoxon.
(§11) The doses of the test compounds are all expressed in terms of the base. Unless otherwise mentioned, all the compounds were dissolved in sterile water (to which a few drops of lactic acid are added, if necessary) and administered at a volume of 1 ml/kg s.c..

5-HT1A receptors [2] = molecular target: T1, 5-HT1A receptors; test: In vitro binding test, 5-HT1A receptors, [3]H-8-OH-DPAT, rat hippocampus membranes; parameters: Hippocampus from the brains of decapitated rats; from tissue; host or cells: rat hippocampus membranes (male Wistar); species or system rat (male Wistar)
Protocol: Hippocampus from the brains of decapitated rats was immediately frozen on dry ice and then stored at -80° C. until preparation of membranes. The tissue was homogenised at 4° C. in the appropriate buffer using a Polytron (Brinkman Instruments - Lucerne - Switzerland) and centrifuged at 20,000 rpm.
Incubation was carried out at 25° C. for 30 minutes. Non-specific binding was defined by 10 μM of 5-HT. The tests were terminated by rapid filtration by means of a Brandel harvester over glass-fibre filters pretreated with 0.1% polyethyleneimine.
The inhibitory concentration 50 values (IC50) were determined according to method 8 of Tallarida R. J. and Murray R. B., Manual of pharmacological calculations with computer programs, Springer Verlag, N.Y. (1987).
The pKi was calculated according to the formula [formula] where [L] is the concentration of the hot ligand ([3]H-8-OH-DPAT, 0.4 nM) and Kd is the apparent dissociation constant determined from saturation experiments.
The test substances were dissolved in the incubation buffer.

5-HT1A receptors [3] = molecular target: T1, 5-HT1A receptors; test: Spontaneous tail flick test (STF), agonist and antagonist activity; assay type: in vivo, male Wistar rats; parameters: from tissue; host or cells: whole animal, male Wistar rat (in vivo); conditions: for Spontaneous tail flicks M.E.D.: agonist: induction of STF, s.c., minimum effective dose; for ED50: rat, sc, 1 h, antagonist: inhibition of STF induced by 8-OH-DPAT 0.63 mg/kg s.c., compound s.c. 60 min before test, read-out: Spontaneous tail flicks ID50 (95% C.L.)
Protocol: as §1, §2, §3, §4, §5, §6, §7
Tail flicks were determined in animals restrained in horizontal, opaque plastics cylinders, the animals' tails hanging freely over the edge of the laboratory bench. After a 5-minute adaptation period, the number of movements made in 5 minutes is recorded. One STF is defined as the raising of the tail to a level higher than the level of the body axis [Millan M. J. et al., J. Pharmacol. Exp. Ther., 256, 973-982 (1990)].
as §10, §11

5-HT1A receptors [4] = molecular target: T1, 5-HT1A receptors; test: Body temperature (hypothermia), agonist and antagonist activity; assay type: in vivo, male Wistar rats; parameters: from tissue; host or cells: whole animal, male Wistar rat (in vivo); conditions: for Hypothermia M.E.D.: agonist: induction of hypothermia, s.c., minimum effective dose; for ED50: rat, sc, 1 h, antagonist: inhibition of hypothermia induced by 8-OH-DPAT 0.16 mg/kg s.c., compound s.c. 60 min before test, read-out: Hypothermia ID50 (95% C.L.)
Protocol: as §1, §2, §3, §4, §5, §6, §7
The rats are immobilised and a lubricated digital thermometer (Thermistoprobe from Testotherm, Basle, Switzerland) is inserted into the rectum to a depth of 5 cm. 30 seconds after insertion, the temperature is read off a digital scale. The percentage inhibition is calculated with the aid of the formula mentioned above.
as §10, §11

5-HT1A receptors [5] = molecular target: T1, 5-HT1A receptors; test: Corticosterone secretion (CS), plasma, agonist and antagonist activity; assay type: in vivo, male Wistar rats; parameters: from tissue; host or cells: whole animal, male Wistar rat (in vivo); conditions: for Corticosterone secretion M.E.D.: agonist: induction of CS, s.c., minimum effective dose; for ED50: rat, sc, 1 h, antagonist: inhibition of CS induced by 8-OH-DPAT 0.16 mg/kg s.c., compound s.c. 60 min before test, read-out: Corticosterone secretion ID50 (95% C.L.)
Protocol: as §1, §2, §3, §4, §5, §6, §7, §8, §9
CS was determined using a radio-competitive assay for a CS-binding protein in plasma: transcortin. The latter is obtained from monkey serum. Separation of the CS-transcortin complexes from free CS was effected by means of a solution of dextran and active charcoal. The detection limit was 50 pg/tube. Intra- and inter-assay variations were 5 and 15%, respectively [cf. Rivet J. M. et al., Eur. J. Pharmacol., 183, 634-635 (1990)].
Since the base levels of CS in plasma are never zero, the following formula was used to calculate the percentage inhibition of plasmatic CS induced by 8-OH-DPAT: [formula]
as §10, §11

[6] = 1 h, read-out: Flat body posture ED50 (95% C.L.), antagonism of 8-OH-DPAT, inhibition of FBP, 8-OH-DPAT 0.16 mg/kg s.c., compound s.c. 60 min before test
[7] = induction of FBP, s.c., dose at which 50% of the animals show a response, read-out: Flat body posture ED50 (95% C.L.), agonist response
[8] = hot ligand [3]H-8-OH-DPAT 0.4 nM, rat hippocampus membranes, 25° C., 30 minutes, read-out: Affinity (pKi) (converted)

SMILES	ED50 (5-HT1A receptors [1]; [6])	ED50 (5-HT1A receptors [1]; [7])	Ki (5-HT1A receptors [2])	Spontaneous tail flicks M.E.D. (5-HT1A receptors [3])	ED50 (5-HT1A receptors [3])	Hypothermia M.E.D. (5-HT1A receptors [4])	ED50 (5-HT1A receptors [4])	Corticosterone secretion M.E.D. (5-HT1A receptors [5])	ED50 (5-HT1A receptors [5])	Ki (5-HT1A receptors [2]; [8])	Affinity (pKi) (5-HT1A receptors [2]; hot ligand [3]H-8-OH-DPAT 0.4 nM, rat hippocampus membranes, 25° C., 30 minutes)
c1ccc2c(c1)CC2CN1CCN(c2cccc3c2OCCO3)CC1 (racemic) [Example 1, (R,S)-4-(benzodioxan-5-yl)-1-[(benzocyclobutan-1-yl)methyl]-piperazine]	0.71 mg/kg	> 10 mg/kg	1.82 nM	> 10.0 mg/kg	0.09 mg/kg	10.0 mg/kg	0.5 mg/kg	> 2.5 mg/kg	< 2.5 mg/kg	–	–
c1ccc2c(c1)CC2CCN1CCN(c2cccc3c2OCCO3)CC1 (racemic) [Example 2, (R,S)-4-(benzodioxan-5-yl)-1-[2-(benzocyclobutan-1-yl)-ethyl]-piperazine]	0.76 mg/kg	> 20 mg/kg	0.617 nM	> 10.0 mg/kg	0.085 mg/kg	40.0 mg/kg	0.65 mg/kg	10.0 mg/kg	0.66 mg/kg	–	–
c1ccc2c(c1)CC2CCN1CCN(c2cccc3c2OCCCO3)CC1 (racemic) [Example 3, (R,S)-4-[benzo(1,5)dioxepin-6-yl]-1-[2-(benzocyclobutan-1-yl)-ethyl]-piperazine]	1.55 mg/kg	> 10 mg/kg	–	> 10.0 mg/kg	0.32 mg/kg	> 20.0 mg/kg	1.64 mg/kg	> 10.0 mg/kg	2.15 mg/kg	–	–
c1ccc2c(c1)CC2CCCCN1CCN(c2cccc3c2OCCO3)CC1 (racemic) [Example 8, (R,S)-4-(benzodioxan-5-yl)-1-[4-(benzocyclobutan-1-yl)-butyl]-piperazine]	–	–	1.58 nM	–	–	–	–	–	–	–	–
c1ccc2c(c1)CC2CCCN1CCN(c2cccc3c2OCCO3)CC1 (racemic) [Example 13, (R,S)-4-(benzodioxan-5-yl)-1-[3-(benzocyclobutan-1-yl)-propyl]-piperazine]	0.57 mg/kg	> 10 mg/kg	–	> 10.0 mg/kg	0.13 mg/kg	10.0 mg/kg	0.21 mg/kg	10.0 mg/kg	1.27 mg/kg	–	–
c1ccc2c(c1)CCC2CN1CCN(c2cccc3c2OCCO3)CC1 (racemic) [Example 15, (R,S)-4-(benzodioxan-5-yl)-1-[(indan-1-yl)-methyl]-piperazine]	≥ 2.5 mg/kg	> 2.5 mg/kg	2 nM	–	0.085 mg/kg	10.0 mg/kg	1.53 mg/kg	> 2.5 mg/kg	> 2.5 mg/kg	–	–
COc1ccc2c(c1)C(CCN1CCN(c3cccc4c3OCCO4)CC1)C2 (racemic) [Example 16, (R,S)-4-(benzodioxan-5-yl)-1-[2-(5-methoxybenzocyclobutan-1-yl)-ethyl]-piperazine]	–	–	–	–	–	–	–	–	–	1.41 nM	–
COc1cc2c(cc1OC)C(CCN1CCN(c3cccc4c3OCCO4)CC1)C2 (racemic) [Example 17, (R,S)-4-(benzodioxan-5-yl)-1-[2-(4,5-dimethoxybenzocyclobutan-1-yl)-ethyl]-piperazine]	–	–	–	–	–	–	–	–	–	3.47 nM	–
COc1cc2c(cc1OC)C(CCN1CCN(c3cccc4c3OCCO4)CC1)CC2 (racemic) [Example 19, (R,S)-4-(benzodioxan-5-yl)-1-[2-(5,6-dimethoxyindan-1-yl)-ethyl]-piperazine]	–	–	–	–	–	–	–	–	–	1.48 nM	–
c1ccc2c(c1)CCC2CCN1CCN(c2cccc3c2OCCO3)CC1 (racemic) [Example 22, (R,S)-4-(benzodioxan-5-yl)-1-[2-(indan-1-yl)-ethyl]-piperazine]	1.03 mg/kg	> 10 mg/kg	–	> 10.0 mg/kg	0.74 mg/kg	> 40.0 mg/kg	1.19 mg/kg	> 10.0 mg/kg	1.92 mg/kg	–	–
c1ccc2c(c1)CCC2CCCN1CCN(c2cccc3c2OCCO3)CC1 (racemic) [Example 23, (R,S)-4-(benzodioxan-5-yl)-1-[3-(indan-1-yl)-propyl]piperazine]	0.29 mg/kg	10 mg/kg	–	–	0.56 mg/kg	5.0 mg/kg	0.4 mg/kg	> 2.5 mg/kg	< 2.5 mg/kg	–	–
c1ccc2c(c1)CC(N1CCN(c3cccc4c3OCCO4)CC1)C2 [Example 7, 4-(benzodioxan-5-yl)-1-(indan-2-yl)-piperazine]	0.52 mg/kg	> 10 mg/kg	–	> 10.0 mg/kg	0.74 mg/kg	20.0 mg/kg	1.6 mg/kg	> 10.0 mg/kg	2.5 mg/kg	–	8.75
C1=C(CCN2CCN(c3cccc4c3OCCO4)CC2)c2ccccc2C1 [Example 18, 4-(benzodioxan-5-yl)-1-[2-(ind-1-en-1-yl)-ethyl]-piperazine]	–	–	0.813 nM	–	–	–	–	–	–	–	–
